1 compound from paper PMC5460289, “Identification of New Shikonin Derivatives as Antitumor Agents Targeting STAT3 SH2 Domain” (Scientific Reports, 2017) can be followed below.

Type in all cases: cell-based, human
For test [1], the system named is STAT3-TATA-Luc reporter in MDA-MB-231 cells. The experiment in a line: STAT3 dual-luciferase reporter assay. As to conditions: MDA-MB-231, 24 h treatment. As to the method:
Figure 3 MDA-MB-231 cells were transfected with STAT3-TATA-Luc reporter and Renilla luciferase reporter plasmids. After 24 h, cells were treated with indicated concentrations of PMM-172 or Stattic for 24 h and then luciferase intensity was measured. Results are fold change ± SD of three independent experiments, *P < 0.05, **P < 0.01.
Cells were seeded in 24 well plates and transiently transfected together with STAT3 reporter plasmid 4 × M67 pTATA TK-Luc (0.2 μg/per well, Addgene, USA) and Renilla luciferase control reporter plasmid pRL-CMV (0.1 μg/per well, promega, USA), using lipofectamine 2000 (Invitrogen, USA). Then the cells were incubated with complete medium for 24 h with PMM-172 or Stattic. Following the treatment, the cells were harvested in 100 μL of passive lysis buffer (Promega, USA) in each well. A 25 μL aliquot of cell lysate was subjected to a luciferase assay by using the dual-luciferase assay kit (Promega, USA). STAT3 luciferase activity was measured by EnVision Mutilabel Reader (Perkin Elmer, USA). Relative luciferase activity was calculated after the activity of STAT3-dependent firefly luciferase had been normalized to that of Renilla luciferase. All values are expressed as - fold induction relative to basal activity.
(In a reporter assay the amount or activity of a reporter protein is the signal.)

The subject of the next test is MDA-MB-231 cells. The experiment in a line: Mitochondrial transmembrane potential by JC-1 staining. As to conditions: 4 h treatment, control 92.3%. As to the method:
Subsequently, the mitochondrial transmembrane potential was monitored using JC-1 staining. […] Red fluorescence represents the mitochondrial aggregate form of JC-1 with high ∆Ψm in normal cells. Green fluorescence represents the monomeric form of JC-1 with low ∆Ψm in apoptotic cells.
Figure 5 Mitochondrial transmembrane potential was analysed in PMM-172-treated MDA-MB-231 cells by JC-1 staining. TEXT PRINTED IN THE PICTURE: no label printed: Q1 1.74% (0 μM); Q2 92.3% (0 μM); Q4 0.011% (0 μM); Q3 5.94% (0 μM); Q1 1.88% (2 μM); Q2 73.3% (2 μM); Q4 0.179% (2 μM); Q3 24.6% (2 μM); Q1 1.88% (4 μM); Q2 64.6% (4 μM); Q4 0.227% (4 μM); Q3 33.3% (4 μM); Q1 0.436% (8 μM); Q2 21.3% (8 μM); Q4 0.016% (8 μM); Q3 78.2% (8 μM) DOUBTS OF THE COPYIST ABOUT THIS PICTURE: The picture prints no label for the substance; the plots are told apart only by concentration (0, 2, 4, 8 μM), and the 0 μM plot is the untreated control. / The quadrant percentages are printed very small, so 3, 5, 6, 8 and 9 cannot be told apart with certainty and all readings are best readings: 0 μM: Q1 1.74%, Q2 92.3%, Q3 5.94%, Q4 0.011%; 2 μM: Q1 1.88%, Q2 73.3%, Q3 24.6%, Q4 0.179%; 4 μM: Q1 1.88%, Q2 64.6%, Q3 33.3%, Q4 0.227%; 8 μM: Q1 0.436%, Q2 21.3%, Q3 78.2%, Q4 0.016% […]

The subject of test [2] is STAT3 nuclear localization in MDA-MB-231 cells. The experiment in a line: STAT3 nuclear localization (cytoplasmic and nuclear extracts, Western blot). To be noted: MDA-MB-231, 24 h. The protocol:
It is known that the dimerization of STAT3 is induced by the phosphorylation at residue Tyr 705, which then leads to its nuclear translocation. Herein, we investigated the effect of PMM-172 and Stattic on STAT3 nuclear translocation. The cytoplasmic and nuclear proteins of treated cells were extracted and the expressions of STAT3 in both fractions were examined.
Figure 7 MDA-MB-231 cells were treated with indicated concentrations of PMM-172 or Stattic for 24 h, the expression levels of STAT3 in cytoplasmic and nuclear extracts were examined and relative expression levels were analyzed by Image J software. β-actin and Lamin B1 served as markers of cytoplasmic and nuclear extractions, respectively. […] (C) MCF-10A cells were treated with the indicated concentrations of PMM-172 for 24 h. PMM-172 had no effect on the level of the pSTAT3 level in MCF-10A cells. […] Data were shown as mean ± SD from three independent experiments, **P < 0.01. Cropped blots/gels were used in the figure and the gels had been run under the same experimental conditions; the full-length blots/gels are presented in Supplementary Figure S3.
To examine the relative proportion of STAT3 in the cytoplasm and nucleus, cytoplasmic and nuclear extracts were prepared. In brief, control and treated cells were collected and suspended in a buffer containing 10 mM HEPES (pH 7.9), 10 mM KCl, 0.1 mM EDTA (pH 8.0), 0.1 mM EGTA (pH 7.0), 1 mM DTT, 0.5 mM PMSF, 2 μg/mL leupeptin, 2 μg/mL aprotonin, 0.5 mg/mL benzamidine. After 15 min, NP-40 (0.25%) was added, and cell lysate was vortexed for 10 s and centrifuged at 10000 rmp at 4 °C for 1 min. […] The protein content in the nuclear and cytoplasmic fractions was determined using a Pierce BCA protein assay kit.
Cells were rinsed twice with cold PBS and then lysed with RIPA buffer containing a protease inhibitor mixture at 1:100 dilution on ice for 30 min. Insoluble components of cell lysates were removed by centrifugation (4 °C, 12000 rmp, 10 min), and protein concentrations were measured using a Pierce BCA protein assay kit. […]

Turning to `COc1cc(OC)cc(-c2nnc(SCC(=O)O[C@H](CC=C(C)C)C3=CC(=O)c4c(O)ccc(O)c4C3=O)o2)c1` [PMM-172, (R)-1-(5,8-dihydroxy-1,4-dioxo-1,4-dihydronaphthalen-2-yl)-4-methylpent-3-en-1-yl 2-((5-(3,5-dimethoxyphenyl)-1,3,4-oxadiazol-2-yl)thio)acetate], in test [1], the STAT3 luciferase activity entry was “decreased the STAT3 luciferase activity in a dose-dependent manner”. In the test with MDA-MB-231 cells (4 μM), the “JC-1 quadrant Q2 (ratio of cells with high membrane potential)” value amounted to 64.6%. The “JC-1 quadrant Q2 (ratio of cells with high membrane potential)” value with MDA-MB-231 cells (8 μM) was 21.3%. Also, in test [2], the “level of STAT3 in the cytoplasmic fraction” value is “slightly increased” and the “level of STAT3 in the nuclear fraction” value is “decreased by PMM-172 in a dose-dependent manner”.
